This is an account of results in US20240368566A1, “PYK2-DERIVED PEPTIDES FOR INHIBITING INVADOPODIA-MEDIATED CANCER METASTASIS” (BAR-ILAN UNIVERSITY, priority 2023, published 2024).

The term Kd denotes a measure of binding affinity in units of concentration.

Where no end group is shown, it is not given here.

The test system of experiment [1] is interaction between Pyk2 and cortactin in invadopodia. The experiment is described as follows: Acceptor photobleaching FRET assay. It counts as cell-based, human. As to conditions: 0.1, 1, 5 μM peptide; mature matrix-degrading invadopodia. The protocol:
Acceptor photobleaching experiments were performed as described in Genna et al., 2018 (supra). In brief, cortactin-TagRFP MDA-MB-231 cells were plated on Alexa 405 gelatin in a medium containing Pyk2-PRR or scrambled control peptides at 0.1, 1, and 5 μM concentration, fixed, and immunostained with pY402-Pyk2/Alexa Fluor 488-goat anti-rabbit (donor) and cortactin/Alexa Fluor 555-goat anti-mouse (acceptor). As a control, cells were stained with Tks5/Alexa Fluor 488-goat anti-rabbit (donor) and cortactin/Alexa Fluor 555-goat anti-mouse (acceptor). Co-localization of cortactin with degradation holes in Alexa 405-labeled gelatin was used to identify mature degrading invadopodia. For all FRET experiments, cells were imaged in PBS at room temperature on a laser-scanning inverted confocal microscope (Zeiss LSM780; 60×, NA 1.4, oil objective). A region of interest surrounding invadopodia was bleached using 100% 561-nm laser power (acceptor channel), and images were acquired in both the 488 nm and the 561 nm channels before and after bleaching. FRET efficiency was calculated as the E=1−(donor pre/donor post) in background-subtracted images and was corrected for fluctuations in laser power and donor bleaching in ImageJ.

For experiment [2], the system named is MDA-MB-231 cells. The experiment is described as follows: ECM degradation assay. Type of experiment: cell-based, human. To be noted: 24 h on fluorescent fibronectin/gelatin matrix; compared to control peptide. The protocol: The in vitro matrix degradation assay was performed as described in Genna et al., 2018 (supra). Briefly, MatTek dishes were treated with 2.5% gelatin/2.5% sucrose, cross-linked with 0.5% glutaraldehyde, treated with 10 μg/ml of fluorescently labeled fibronectin (Alexa 568; Invitrogen, Thermo Fischer Scientific), and then with 1 mg/ml NaBH4 in PBS. 125,000 cells were plated on the fibronectin/gelatin matrix in Pyk2-PRR or control peptides and allowed to degrade for 24 h. Cells were then fixed in 3.7% paraformaldehyde, and random fields were imaged using an inverted fluorescent microscope (Leica AF6000; 40×, NA 1.3, oil objective). ECM degradation was analyzed by quantifying the average degraded area in pixels per field using ImageJ.

Experiment [3] deals with MDA-MB-231 cells. The experiment is described as follows: Invadopodium precursor formation assay. Type of experiment: cell-based, human. To be noted: 4 h, 0.1, 1 or 5 μM peptide. The protocol:
The invadopodium precursor formation assay was performed as described in Genna et al., 2018 (supra). Briefly, gelatin was conjugated to Alexa 405 dye (Thermo Fisher Scientific). MatTek dishes were treated with 1 N HCl and coated with 50 μg/ml poly-L-lysine. A 0.2% gelatin solution was prepared in PBS, and a 1:20 mixture of Alexa 405-labeled gelatin/unlabeled gelatin was warmed to 37° C. before addition to the poly-L-lysine coated plates. Gelatin was cross-linked with 0.01% glutaraldehyde followed by quenching with 5 mg/ml sodium borohydride. 125,000 MDA-MB-231 cells were plated on Alexa 405-labeled gelatin plates in the presence of 0.1, 1, or 5 μM of Pyk2-PRR peptides or scrambled control for 4 h. At the end of incubation, cells were fixed in 3.7% paraformaldehyde, permeabilized with 0.1% Triton X-100, blocked with 1% FBS, 1% BSA in PBS, and labeled with anti-Tks5 and anti-cortactin. Images were acquired using an inverted fluorescent microscope (Leica AF6000; 63×, NA 1.4, oil objective, Leica LAS AF acquisition software) (Wetzlar, Germany) equipped with an ORCA-Flash 4.0 V2 digital CMOS camera (Hamamatsu Photonics, Shizuoka, Japan).

For the next experiment, the system named is 4T1 cells. Put plainly: Spontaneous lung metastasis clonogenic assay in 4T1 xenograft mouse model. It counts as in vivo, BALB/c female mice. As to conditions: 10 mg/kg once a day for eight days, intraperitoneal injection, HIV-TAT fused peptide; versus scrambled control. How it is done:
All experimental procedures were conducted following the Federation of Laboratory Animal Science Association (FELSA) and were approved by the Bar-Ilan University animal use and care committee. Mouse xenograft tumors were generated by injecting 10^6 4T1 cells resuspended in 20% collagen I (BD Biosciences, Franklin Lakes, NJ, USA) in PBS into the lower-left mammary gland of 8-week-old BALB/c female mice. […] 4T1 cells have intrinsic resistance to 6-thioguanine, which enables precise quantification of metastatic cells, even when they are disseminated at sub-microscopic levels at distant organs, upon excision and digestion of selected organs. The clonogenic assay is based on a principle by which one colony represents one metastatic cell. Briefly, spontaneous lung metastasis was measured in BALB/c mice bearing orthotopic 4T1 tumors of equal size (1-1.2 cm in diameter). Lungs were excised and minced and plated in RPMI/10% FBS in the presence of 6-thioguanine to select for tumor cells only. Cells were plated in a 5% CO2 incubator at 37° C. for 14 days to form 4T1 colonies. On day 14 after plating, the medium was removed from dishes, and colonies were fixed in 4% paraformaldehyde for one hour at room temperature. Colonies were then stained in 2% crystal violet solution and thoroughly washed with PBS. Plates were allowed to air dry, and colonies in each plate were quantified. […]

Experiment [4] deals with T1, cortactin-SH3 domain (mouse cortactin SH3 domain, GenBank ID U03184; nucleotides 1468-1641) (mouse, UniProt Q60598 490-546, isotopically labeled (15N, 13C and/or 2H) for NMR).
T1 construct: domain: SH3 domain; also called purified cortactin-SH3
Put plainly: NMR chemical shift titration (1H,15N-HSQC), unlabeled peptide into 15N-SH3.

For experiment [5], the target named is T1, cortactin-SH3 domain (mouse cortactin …). Put plainly: NMR chemical shift titration.

T1 sequence (Q60598 490-546 limits assumed, one chain of several): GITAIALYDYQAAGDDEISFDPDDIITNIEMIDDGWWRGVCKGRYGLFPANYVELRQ

Turning to “TAFQEPAPKASQAQYRPPP [Pyk2 super-mutant, TAFQEPAPKASQAQYRPPP]”, in experiment [1], the “interaction between Pyk2 and cortactin in invadopodia (FRET)” value is listed as “does not significantly inhibit”. Further, the “matrix degradation (degradation area)” value in the experiment with MDA-MB-231 cells [2] is “small but significant reduction”. The “mature, matrix-degrading invadopodia” value in the experiment with MDA-MB-231 cells [3] (co-localization with degradation regions) is “small but significant reduction”. Moreover, in the experiment on MDA-MB-231 cells [3] (cortactin and Tks5 co-localization), the immature invadopodium precursors result is reported as “no significant effect”. Moreover, the “lung metastases (6-thioguanine-resistant colonies)” value in the experiment with 4T1 cells is given as “no significant differences in colony number”.

B1: Pyk2-PRR2 peptide (SEQ ID NO: 1) (peptide)
peptide: TAFQEPPPKPSRPKYRPPP
notes: Unlabeled synthetic peptide as used in the NMR experiments; Positions count on UniProt Q14289
On to B1, for which, in experiment [4], the Kd came out at 40 µM. Moreover, the “fold higher affinity than Pyk2-PRR3” value in experiment [5] was 16 fold.
